Data as given in ChEMBL document CHEMBL4177730, “Rational modification of semaxanib and sunitinib for developing a tumor growth inhibitor targeting ATP binding site of tyrosine kinase” (2018).
Activity calls are given as the source filed them.

Columns and labels:
Assay type in all cases: functional, cell-based
HCC 2998 = experiment: Growth inhibition of human HCC2998 cells at 10 uM after 48 hrs by sulforhodamine B assay
M14 = experiment: Growth inhibition of human M14 cells at 10 uM after 48 hrs by sulforhodamine B assay
SK-MEL-5 = experiment: Growth inhibition of human SK-MEL-5 cells at 10 uM after 48 hrs by sulforhodamine B assay
SK-OV-3 = experiment: Growth inhibition of human SKOV3 cells at 10 uM after 48 hrs by sulforhodamine B assay
T47D = experiment: Growth inhibition of human T47D cells at 10 uM after 48 hrs by sulforhodamine B assay
TK-10 = experiment: Growth inhibition of human TK10 cells at 10 uM after 48 hrs by sulforhodamine B assay
NCI/ADR-RES = experiment: Growth inhibition of human NCI-ADR-RES cells at 10 uM after 48 hrs by sulforhodamine B assay
Malme-3M = experiment: Growth inhibition of human MALME-3M cells at 10 uM after 48 hrs by sulforhodamine B assay
A549 = experiment: Growth inhibition of human A549/ATCC cells at 10 uM after 48 hrs by sulforhodamine B assay
SR = experiment: Growth inhibition of human SR cells at 10 uM after 48 hrs by sulforhodamine B assay
U-251 = experiment: Growth inhibition of human U251 cells at 10 uM after 48 hrs by sulforhodamine B assay
OVCAR-5 = experiment: Growth inhibition of human OVCAR5 cells at 10 uM after 48 hrs by sulforhodamine B assay
HCT-116 = experiment: Growth inhibition of human HCT116 cells at 10 uM after 48 hrs by sulforhodamine B assay
SNB-75 = experiment: Growth inhibition of human SNB75 cells at 10 uM after 48 hrs by sulforhodamine B assay
OVCAR-3 = experiment: Growth inhibition of human OVCAR3 cells at 10 uM after 48 hrs by sulforhodamine B assay
RPMI-8226 = experiment: Growth inhibition of human RPMI8226 cells at 10 uM after 48 hrs by sulforhodamine B assay
HCT-15 = experiment: Growth inhibition of human HCT15 cells at 10 uM after 48 hrs by sulforhodamine B assay
NCI-H23 = experiment: Growth inhibition of human NCI-H23 cells at 10 uM after 48 hrs by sulforhodamine B assay
MDA-MB-231 = experiment: Growth inhibition of human MDA-MB-231 cells at 10 uM after 48 hrs by sulforhodamine B assay
SF-539 = experiment: Growth inhibition of human SF539 cells at 10 uM after 48 hrs by sulforhodamine B assay
CCRF-CEM = experiment: Growth inhibition of human CCRF-CEM cells at 10 uM after 48 hrs by sulforhodamine B assay
LOX IMVI = experiment: Growth inhibition of human LOXIMVI cells at 10 uM after 48 hrs by sulforhodamine B assay
K562 = experiment: Growth inhibition of human K562 cells at 10 uM after 48 hrs by sulforhodamine B assay
RXF 393 = experiment: Growth inhibition of human RXF393 cells at 10 uM after 48 hrs by sulforhodamine B assay
EKVX = experiment: Growth inhibition of human EKVX cells at 10 uM after 48 hrs by sulforhodamine B assay
ACHN = experiment: Growth inhibition of human ACHN cells at 10 uM after 48 hrs by sulforhodamine B assay
Hs-578T = experiment: Growth inhibition of human Hs 578T cells at 10 uM after 48 hrs by sulforhodamine B assay
SF-295 = experiment: Growth inhibition of human SF295 cells at 10 uM after 48 hrs by sulforhodamine B assay
HOP-92 = experiment: Growth inhibition of human HOP92 cells at 10 uM after 48 hrs by sulforhodamine B assay
SW-620 = experiment: Growth inhibition of human SW620 cells at 10 uM after 48 hrs by sulforhodamine B assay
COLO 205 = experiment: Growth inhibition of human COLO205 cells at 10 uM after 48 hrs by sulforhodamine B assay
SNB-19 = experiment: Growth inhibition of human SNB19 cells at 10 uM after 48 hrs by sulforhodamine B assay
SF-268 = experiment: Growth inhibition of human SF268 cells at 10 uM after 48 hrs by sulforhodamine B assay
HT-29 = experiment: Growth inhibition of human HT-29 cells at 10 uM after 48 hrs by sulforhodamine B assay
UO-31 = experiment: Growth inhibition of human UO31 cells at 10 uM after 48 hrs by sulforhodamine B assay
MDA-MB-468 = experiment: Growth inhibition of human MDA-MB-468 cells at 10 uM after 48 hrs by sulforhodamine B assay
KM12 = experiment: Growth inhibition of human KM12 cells at 10 uM after 48 hrs by sulforhodamine B assay
MOLT-4 = experiment: Growth inhibition of human MOLT4 cells at 10 uM after 48 hrs by sulforhodamine B assay
DU-145 = experiment: Growth inhibition of human DU145 cells at 10 uM after 48 hrs by sulforhodamine B assay
NCI-H522 = experiment: Growth inhibition of human NCI-H522 cells at 10 uM after 48 hrs by sulforhodamine B assay
786-0 = experiment: Growth inhibition of human 786-0 cells at 10 uM after 48 hrs by sulforhodamine B assay
NCI-H460 = experiment: Growth inhibition of human NCI-H460 cells at 10 uM after 48 hrs by sulforhodamine B assay
NCI-H226 = experiment: Growth inhibition of human NCI-H226 cells at 10 uM after 48 hrs by sulforhodamine B assay
MCF7 = experiment: Growth inhibition of human MCF7 cells at 10 uM after 48 hrs by sulforhodamine B assay
NCI-H322M = experiment: Growth inhibition of human NCI-H322M cells at 10 uM after 48 hrs by sulforhodamine B assay
HOP-62 = experiment: Growth inhibition of human HOP62 cells at 10 uM after 48 hrs by sulforhodamine B assay
BT-549 = experiment: Growth inhibition of human BT549 cells at 10 uM after 48 hrs by sulforhodamine B assay
SN12C = experiment: Growth inhibition of human SN12C cells at 10 uM after 48 hrs by sulforhodamine B assay
PC-3 = experiment: Growth inhibition of human PC3 cells at 10 uM after 48 hrs by sulforhodamine B assay
IGROV-1 = experiment: Growth inhibition of human IGROV1 cells at 10 uM after 48 hrs by sulforhodamine B assay
SK-MEL-28 = experiment: Growth inhibition of human SK-MEL-28 cells at 10 uM after 48 hrs by sulforhodamine B assay
HL-60(TB) = experiment: Growth inhibition of human HL-60(TB) cells at 10 uM after 48 hrs by sulforhodamine B assay
CAKI-1 = experiment: Growth inhibition of human CAKI-1 cells at 10 uM after 48 hrs by sulforhodamine B assay
A498 = experiment: Growth inhibition of human A498 cells at 10 uM after 48 hrs by sulforhodamine B assay
SK-MEL-2 = experiment: Growth inhibition of human SK-MEL-2 cells at 10 uM after 48 hrs by sulforhodamine B assay
OVCAR-8 = experiment: Growth inhibition of human OVCAR8 cells at 10 uM after 48 hrs by sulforhodamine B assay
MDA-MB-435 = experiment: Growth inhibition of human MDA-MB-435 cells at 10 uM after 48 hrs by sulforhodamine B assay
OVCAR-4 = experiment: Growth inhibition of human OVCAR4 cells at 10 uM after 48 hrs by sulforhodamine B assay
UACC-62 = experiment: Growth inhibition of human UACC62 cells at 10 uM after 48 hrs by sulforhodamine B assay

Measured: growth inhibition (GI)

O=C1/C(=C\c2cccn2C(=O)c2ccc(Cl)cc2)c2ccccc2N1c1c(Cl)cccc1Cl
inactive: all assays above
